Columns and labels:
Assay type in all cases: cell-based, human
[1] = tested on: HCT 116 cells transduced with the PDE5A DD derived GFP constructs; experiment: Response to Vardenafil, GFP expression by FACS in HCT116; conditions: for MFI / Stabilization ratio with Vardenafil: 48 hours, HCT116
Method: (§1) Mutations were created in PDE5A (535-860) catalytic domain using site directed mutagenesis and the mutants were cloned as AcGFP fusion into pELNS vector carrying mCherry marker and packaged in lentiviral vectors. HCT116 cells were transduced with the constructs and stable integrants were selected by cell sorting using mCherry marker. Cells were treated with vehicle (dimethyl sulfoxide, DMSO) or 10 μM Vardenafil (VDF) for 48 hours. Following the treatment, cells were analyzed for GFP expression using FACS. Basal expression was calculated as the ratio of GFP signal in the absence of ligand for a given cell line to auto fluorescence of parental HCT-116 cells. Stabilization ratio was calculated as the ratio of the GFP signal observed in the presence of stabilizing ligand to the signal from the same cell line in the absence of ligand.
HCT 116 cells transduced with the PDE5A DD derived GFP constructs were also tested with increasing doses of Vardenafil. The HCT116 cells were incubated for 48 hours with Vardenafil starting at a dose of 0.002 μM to 30 μM. The GFP intensity of the Vardenafil treated samples was compared to the parental untransduced HCT116 and DMSO treated cells for each construct. The mean fluorescence intensity was calculated for each sample and used to calculate the stabilization ratios as well as the basal expression for each construct. The GFP expression was measured using flow cytometry and the mean fluorescence intensity (MFI) was calculated for each sample. The stabilization ratios are shown in Table 13 and Table 14 and the basal expression is show in Table 15.

[2] = tested on: HCT116 cells transduced with the constructs; experiment: Response to Sildenafil, GFP expression by flow cytometry in HCT116; conditions: for MFI / Stabilization ratio with Sildenafil: 48 hours, HCT116
Method: Similar experiments were performed in HCT116 cells using sildenafil. The above-mentioned DDs were cloned as AcGFP fusion into pELNS vector carrying mCherry marker and packaged in lentiviral vectors. HCT116 cells were transduced with the constructs and stable integrants were selected by cell sorting using mCherry marker. Cells were treated with sildenafil at the following μM concentrations: 0.01, 0.02, 0.05, 0.14, 0.41, 1.23, 3.7, 11.11, 33.33, and 100 for a duration of 48 hours. The fluorescence was analyzed by flow cytometry and the mean fluorescence intensity was calculated for all samples. […] The stabilization ratios are shown in Table 24 and Table 25 and the basal expression is show in Table 26.

[3] = tested on: HCT 116 cells transduced with the PDE5A DD derived GFP constructs; experiment: Response to Tadalafil, GFP expression by FACS in HCT116; conditions: for MFI / Stabilization ratio with Tadalafil: 48 hours, HCT116
Method: as §1, with “PDE5AN (#3) was” for “Mutations were created in PDE5A (535-860) catalytic domain using site directed mutagenesis and the mutants were”, “construct” for “constructs”, “varying doses of Tadalafil (TDF)” for “10 μM Vardenafil (VDF)”, “hrs with doses ranging from 0.01 μM to 100 μM.” for “hours.”
HCT 116 cells transduced with the PDE5A DD derived GFP constructs were also tested with increasing doses of Tadalafil. The HCT116 cells were incubated for 48 hours with Tadalafil starting at dose 0.01 μM to 100 μM. The GFP intensity of the Tadalafil treated samples was compared to the parental untransduced HCT116 and DMSO treated cells for each construct. The mean fluorescence intensity was calculated for each sample and used to calculate the stabilization ratios as well as the basal expression for each construct. The stabilization ratios are shown in Table 19 and Table 20 and the basal expression is show in Table 21.

For “PDE5AC (#25): AcGFP fused to C-terminal DD 535-860 of PDE5A (Q541R, F559L, Q589R, H678R, I824T), SEQ ID NO. 35”, which MFI ([1]; DMSO (no Vardenafil)) is on record?
The MFI was 9555.

What about the Basal ([1]; Table 15, MFI with DMSO / parental HCT116, Vardenafil experiment) of the same substance?
Its Basal is 4.89.

And the “Stabilization ratio with Vardenafil” value ([1]; Vardenafil 0.002 μM vs DMSO)?
The value was 1.0.

And the MFI ([1]; Vardenafil 0.002 μM)?
Its MFI is 9737.

And the “Stabilization ratio with Vardenafil” value ([1]; Vardenafil 0.005 μM vs DMSO)?
The value was 1.0.

What about the MFI ([1]; Vardenafil 0.005 μM) of the same substance?
The MFI was 9694.

What about the “Stabilization ratio with Vardenafil” value ([1]; Vardenafil 0.014 μM vs DMSO) of the same substance?
The value was 1.0.

What about the MFI ([1]; Vardenafil 0.014 μM) of the same substance?
The MFI was 9767.

And the “Stabilization ratio with Vardenafil” value ([1]; Vardenafil 0.041 μM vs DMSO)?
The value was 1.1.

What about the MFI ([1]; Vardenafil 0.041 μM) of the same substance?
The MFI was 10468.

And the “Stabilization ratio with Vardenafil” value ([1]; Vardenafil 0.123 μM vs DMSO)?
Its value is 1.4.

What about the MFI ([1]; Vardenafil 0.123 μM) of the same substance?
The MFI was 13348.

And the “Stabilization ratio with Vardenafil” value ([1]; Vardenafil 0.370 μM vs DMSO)?
Its value is 2.1.

And the MFI ([1]; Vardenafil 0.370 μM)?
The MFI was 20522.

And the “Stabilization ratio with Vardenafil” value ([1]; Vardenafil 1.111 μM vs DMSO)?
The value was 4.1.

What about the MFI ([1]; Vardenafil 1.111 μM) of the same substance?
The MFI was 38958.

And the “Stabilization ratio with Vardenafil” value ([1]; Vardenafil 3.333 μM vs DMSO)?
The value was 6.9.

And the MFI ([1]; Vardenafil 3.333 μM)?
The MFI was 66337.

What about the “Stabilization ratio with Vardenafil” value ([1]; Vardenafil 10 μM vs DMSO) of the same substance?
The value was 9.9.

What about the MFI ([1]; Vardenafil 10 μM) of the same substance?
The MFI was 94642.

And the “Stabilization ratio with Vardenafil” value ([1]; Vardenafil 30 μM vs DMSO)?
Its value is 12.7.

What about the MFI ([1]; Vardenafil 30 μM) of the same substance?
The MFI was 120927.

What about the MFI ([2]; DMSO (no Sildenafil)) of the same substance?
Its MFI is 10217.

What about the “Stabilization ratio with Sildenafil” value ([2]; Sildenafil 0.01 μM vs DMSO) of the same substance?
Its value is 1.0.

What about the MFI ([2]; Sildenafil 0.01 μM) of the same substance?
Its MFI is 10169.

And the “Stabilization ratio with Sildenafil” value ([2]; Sildenafil 0.02 μM vs DMSO)?
Its value is 0.9.

And the MFI ([2]; Sildenafil 0.02 μM)?
Its MFI is 9354.

And the “Stabilization ratio with Sildenafil” value ([2]; Sildenafil 0.05 μM vs DMSO)?
Its value is 1.0.

And the MFI ([2]; Sildenafil 0.05 μM)?
Its MFI is 10120.

And the “Stabilization ratio with Sildenafil” value ([2]; Sildenafil 0.14 μM vs DMSO)?
The value was 1.0.

And the MFI ([2]; Sildenafil 0.14 μM)?
The MFI was 10128.

And the “Stabilization ratio with Sildenafil” value ([2]; Sildenafil 0.41 μM vs DMSO)?
Its value is 1.0.

What about the MFI ([2]; Sildenafil 0.41 μM) of the same substance?
The MFI was 10207.

And the “Stabilization ratio with Sildenafil” value ([2]; Sildenafil 1.23 μM vs DMSO)?
The value was 1.2.

And the MFI ([2]; Sildenafil 1.23 μM)?
The MFI was 12328.

What about the “Stabilization ratio with Sildenafil” value ([2]; Sildenafil 3.70 μM vs DMSO) of the same substance?
The value was 1.7.

And the MFI ([2]; Sildenafil 3.70 μM)?
The MFI was 17466.

And the “Stabilization ratio with Sildenafil” value ([2]; Sildenafil 11.11 μM vs DMSO)?
The value was 2.6.

What about the MFI ([2]; Sildenafil 11.11 μM) of the same substance?
Its MFI is 26947.

What about the “Stabilization ratio with Sildenafil” value ([2]; Sildenafil 33.33 μM vs DMSO) of the same substance?
Its value is 4.6.

And the MFI ([2]; Sildenafil 33.33 μM)?
Its MFI is 46897.

And the “Stabilization ratio with Sildenafil” value ([2]; Sildenafil 100.00 μM vs DMSO)?
The value was 5.1.

What about the MFI ([2]; Sildenafil 100.00 μM) of the same substance?
The MFI was 51774.

What about the Basal expression ([2]; Table 26, MFI with DMSO / parental HCT116, Sildenafil experiment) of the same substance?
Its Basal expression is 7.9.

And the MFI ([3]; DMSO (no Tadalafil))?
Its MFI is 9297.

And the “Basal expression” value ([3]; Table 21, MFI with DMSO / parental HCT116, Tadalafil experiment)?
The value was 7.26.

And the “Stabilization ratio with Tadalafil” value ([3]; Tadalafil 0.01 μM vs DMSO)?
The value was 1.0.

What about the MFI ([3]; Tadalafil 0.01 μM) of the same substance?
The MFI was 9233.

And the “Stabilization ratio with Tadalafil” value ([3]; Tadalafil 0.02 μM vs DMSO)?
The value was 1.0.

What about the MFI ([3]; Tadalafil 0.02 μM) of the same substance?
Its MFI is 8860.

What about the “Stabilization ratio with Tadalafil” value ([3]; Tadalafil 0.05 μM vs DMSO) of the same substance?
The value was 1.0.

What about the MFI ([3]; Tadalafil 0.05 μM) of the same substance?
The MFI was 9404.

And the “Stabilization ratio with Tadalafil” value ([3]; Tadalafil 0.14 μM vs DMSO)?
The value was 1.0.

What about the MFI ([3]; Tadalafil 0.14 μM) of the same substance?
The MFI was 9478.

And the “Stabilization ratio with Tadalafil” value ([3]; Tadalafil 0.41 μM vs DMSO)?
Its value is 1.1.

And the MFI ([3]; Tadalafil 0.41 μM)?
Its MFI is 9858.

What about the “Stabilization ratio with Tadalafil” value ([3]; Tadalafil 1.23 μM vs DMSO) of the same substance?
The value was 1.3.

And the MFI ([3]; Tadalafil 1.23 μM)?
Its MFI is 12432.

What about the “Stabilization ratio with Tadalafil” value ([3]; Tadalafil 3.7 μM vs DMSO) of the same substance?
Its value is 2.1.

What about the MFI ([3]; Tadalafil 3.7 μM) of the same substance?
The MFI was 19294.

And the “Stabilization ratio with Tadalafil” value ([3]; Tadalafil 11.11 μM vs DMSO)?
The value was 3.4.

And the MFI ([3]; Tadalafil 11.11 μM)?
Its MFI is 31763.

And the “Stabilization ratio with Tadalafil” value ([3]; Tadalafil 33.33 μM vs DMSO)?
Its value is 5.8.

What about the MFI ([3]; Tadalafil 33.33 μM) of the same substance?
The MFI was 54151.

What about the “Stabilization ratio with Tadalafil” value ([3]; Tadalafil 100 μM vs DMSO) of the same substance?
Its value is 7.6.

What about the “Stabilization ratio with Tadalafil” value ([3]; Tadalafil 100 μM vs DMSO, listed as PDE5AN (#25)) of the same substance?
The value was “highest stabilization ratio”.

And the MFI ([3]; Tadalafil 100 μM)?
Its MFI is 70389.

From US11891634B2, “PDE5A destabilizing domains” (The Board of Trustees of the Leland Stanford Junior …, priority 2017, dated 2024)
